Measurements from patent publication US12331018B2, “Pyrrolidine orexin receptor agonists” (Merck Sharp & Dohme LLC, priority 2019, dated 2025).
Read-outs that look alike come from different tables or passages of the source.

Target: T1, human OX2R (Homo sapiens, UniProt O43614)
T1 construct: expressed in transfected cells; host or cells: CHO (Chinese hamster ovary) cells, grown under G418 selection
T1 sequence (O43614 1-444): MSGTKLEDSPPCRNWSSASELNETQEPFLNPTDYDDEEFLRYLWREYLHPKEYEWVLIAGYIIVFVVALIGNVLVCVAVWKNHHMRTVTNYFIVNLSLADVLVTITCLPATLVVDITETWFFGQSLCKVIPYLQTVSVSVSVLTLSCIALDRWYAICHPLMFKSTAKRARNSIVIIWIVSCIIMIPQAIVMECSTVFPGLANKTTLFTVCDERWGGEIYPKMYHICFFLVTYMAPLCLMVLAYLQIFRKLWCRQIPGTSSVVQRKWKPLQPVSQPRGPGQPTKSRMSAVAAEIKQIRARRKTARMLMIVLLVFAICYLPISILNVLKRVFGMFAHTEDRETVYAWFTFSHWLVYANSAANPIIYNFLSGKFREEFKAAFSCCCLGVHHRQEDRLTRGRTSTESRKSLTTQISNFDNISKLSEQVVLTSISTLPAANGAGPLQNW
Assay: IPOne (IP-1 accumulation) assay in CHO cells expressing human OX2R
Type: cell-based
Conditions: for Emax, % of reference agonist: OX2R, percentage of sample raw value/mean max effect (reference compound at 1 uM with 100% activity)
Source text: The utility of the compounds in accordance with the present invention as orexin receptor OX1R and/or OX2R agonists may be readily determined without undue experimentation by methodology well known in the art. Both the OX1R and/or OX2R G-coupled protein receptors (GPCRs) couple through the Gaq signaling pathway, which ultimately promotes calcium mobilization via inositol triphosphate (IP3) production. The half-life of IP-3 is relatively short, being rapidly metabolized to inositol monophosphate (IP-1), which can be readily detected using a commercially available assay kit (IP-One; Cisbio; cat #621PAPEC) coupled with a cell line expressing the target receptor(s) of interest. The utility of the compounds in accordance with the present invention as orexin receptor OX1R and/or OX2R agonists may be determined utilizing this assay.
In a typical experiment, the OX1 and OX2 receptor agonist activity is determined in accordance with the following general experimental method. Chinese hamster ovary (CHO) cells expressing human OX1R and/or the human OX2R were grown in Iscove's modified DMEM containing glutaMAX™, 1% G418, 100 U/mL penicillin, 100 μg/mL streptomycin and 10% heat-inactivated qualified fetal bovine serum (FBS). The OX2R cells were seeded at 10,000 cells/well/50 μL and the OX1R cells were seeded at 20,000 cells/well/50 μL into 384-well white tissue culture plates (Greiner; cat #781080). All cell/media reagents were from GIBCO-Invitrogen Corp. The seeded cell plate(s) were incubated at 37° C. with 5% CO2 and 85% humidity for 20-24 hours. On the day of the assay, assay-ready compound plates were prepared using an acoustic liquid handler (ECHO; Labcyte), which dispensed sufficient volume of test compound stock (10 mM in DMSO) or 100% DMSO to prepare 10 point, ½-log dilutions in a final volume of 202.5 nL/well in all test wells of a 384-well diamond plate (Labcyte). Following completion of assay-ready plates, importantly, the next three steps were performed with minimal delay: 1) 20 μl of 1× stimulation buffer was added to the compound plate using a Multidrop Combi (small cassette, Thermo Fisher Scientific cat #24073290); 2) culture medium was removed from the cell plate using the Bluewasher plate washer (gentle spin; BlueCatBio); 3) 14 μl of compound/stimulation buffer mixture was added to the cell plate using a Bravo liquid handler (Agilent) prior to incubating cell plates at 37° C. with 5% CO2 and 85% humidity for 1 or 2 hours (OX1R and OX2R, respectively). During this incubation, IP-one detection reagents were prepared (38:1:1 lysis buffer:D2:AB-cryptate reagents). Six μL of mixed detection reagents were added to the cell plate using a Multidrop Combi (small cassette, Thermo Fisher Scientific cat #24073290) and incubated 60 minutes at room temperature in the dark. Fluorescence signal was detected using an Envision plate reader (Perkin Elmer) [LANCE/DELFIA Dual Enh (Em: APC 665; Ex: Cy5 620)].
For each compound, data were fit to a four parameter logistic fit (ActivityBase software) and the EC50 was reported as the inflection point of the resulting curve. Percent effect for each test compound was determined as the percentage of sample raw value/mean max effect, where the mean max effect was derived from the mean raw value of 32 control wells per assay plate (using Orexin A (cat #003-30) at 1 μM for human OX1R and a reference compound at 1 uM with 100% activity previously established by comparison to Orexin A for human OX2R). The intrinsic orexin receptor agonist activity of a compound which may be used in the present invention may be determined by these assays.

[1] = CHO cells expressing human OX2R, IP-One assay, 2 hours incubation, four parameter logistic fit, read-out: OX2R Potency, EC50

SMILES | EC50 [1] [nM] | Emax, % of reference agonist [%] | OX2R Potency, EC50 (nM) (CHO cells expressing human OX2R, IP-One assay, 2 hours incubation, four parameter logistic fit) | EC50 [nM]
CCNC(=O)N1CC[C@H](NS(C)(=O)=O)[C@@H]1COC1CCC(C(C)C)CC1 (stereo partly drawn) [Example 28, (2R,3S)—N-ethyl-2-(((4-isopropylcyclohexyl)oxy)methyl)-3-(methylsulfonamido)pyrrolidine-1-carboxamide] |  | 99.8 |  | 57.8
CC(=O)OCC(=O)N1CC[C@H](NS(C)(=O)=O)[C@@H]1CO[C@H]1CC[C@@H](c2ccccc2)CC1 (relative stereo) [Example 7, 2-((CIS)-3-(methylsulfonamido)-2-((((CIS)-4-phenylcyclohexyl)oxy)methyl)pyrrolidin-1-yl)-2-oxoethyl acetate] | 361 | 98.8 |  | 
CC(C)NC(=O)N1CC[C@@H](NS(C)(=O)=O)[C@H]1CO[C@H]1CC[C@@H](c2ccccc2)CC1 (relative stereo) [Example 9, (CIS)-N-isopropyl-3-(methylsulfonamido)-2-((((CIS)-4-phenylcyclohexyl)oxy)methyl) pyrrolidine-1-carboxamide] | 36.4 | 99.2 |  | 
CS(=O)(=O)N[C@H]1CCN(C(=O)OCC(F)F)[C@H]1CO[C@H]1CC[C@@H](c2ccccc2)CC1 [Example 12, 2,2-difluoroethyl (2R,3S)-3-(methylsulfonamido)-2-((((CIS)-4-phenylcyclohexyl)oxy)methyl) pyrrolidine-1-carboxylate] | 81 | 101.1 |  | 
CS(=O)(=O)N[C@H]1CCN(C(=O)C2CC2)[C@H]1CO[C@H]1CC[C@@H](c2ccccc2)CC1 (relative stereo) [Example 8, N-((CIS)-1-(cyclopropanecarbonyl)-2-((((CIS)-4-phenylcyclohexyl)oxy)methyl)pyrrolidin-3-yl) methanesulfonamide] | 77.9 | 101.6 |  | 
CCNC(=O)N1CC[C@H](NS(C)(=O)=O)[C@@H]1CO[C@H]1CC[C@@H](c2ccccc2)CC1 (relative stereo) [Example 1, (CIS)-N-ethyl-3-(methylsulfonamido)-2-((((CIS)-4-phenylcyclohexyl)oxy)methyl)pyrrolidine-1-carboxamide] |  | 99.6 |  | 12
CS(=O)(=O)N[C@@H]1CCN(C(=O)OCCF)[C@@H]1CO[C@H]1CC[C@@H](c2ccccc2)CC1 (relative stereo) [Example 6, 2-fluoroethyl (CIS)-3-(methylsulfonamido)-2-((((CIS)-4-phenylcyclohexyl)oxy)methyl) pyrrolidine-1-carboxylate] | 216 | 98.4 |  | 
CC(C)OC(=O)N1CC[C@@H](NS(C)(=O)=O)[C@H]1CO[C@H]1CC[C@@H](c2ccccc2)CC1 (relative stereo) [Example 5, isopropyl (CIS)-3-(methylsulfonamido)-2-((((CIS)-4-phenylcyclohexyl)oxy)methyl) pyrrolidine-1-carboxylate] | 2630 | 92.8 |  | 
CC(=O)N1CC[C@H](NS(C)(=O)=O)[C@@H]1CO[C@H]1CC[C@@H](c2ccccc2)CC1 (relative stereo) [Example 3, N-((CIS)-1-acetyl-2-((((CIS)-4-phenylcyclohexyl)oxy)methyl)pyrrolidin-3-yl)methanesulfonamide] | 272 | 101.3 |  | 

More lines, main results first:

EC50 [1] [nM] | Emax, % of reference agonist [%] | OX2R Potency, EC50 (nM) (CHO cells expressing human OX2R, IP-One assay, 2 hours incubation, four parameter logistic fit) | SMILES | EC50 [nM]
1010 | 96.4 |  | CS(=O)(=O)N[C@H]1CCN(C(=O)CC(F)(F)F)[C@H]1CO[C@H]1CC[C@@H](c2ccccc2)CC1 (relative stereo) [Example 20, N-((CIS)-2-((((CIS)-4-phenylcyclohexyl)oxy)methyl)-1-(3,3,3-trifluoropropanoyl)pyrrolidin-3-yl)methanesulfonamide] | 
250 | 99.6 |  | CS(=O)(=O)N[C@H]1CCN(C(=O)NC2CC2)[C@H]1CO[C@H]1CC[C@@H](c2ccccc2)CC1 (relative stereo) [Example 22, (CIS)-N-cyclopropyl-3-(methylsulfonamido)-2-((((CIS)-4-phenylcyclohexyl)oxy)methyl)pyrrolidine-1-carboxamide] | 
433 | 100.6 |  | CC(C)C1CCC(OC[C@H]2[C@@H](NS(C)(=O)=O)CCN2C(=O)C2CC2)CC1 (stereo partly drawn) [Example 30, N-((2R,3S)-1-(cyclopropanecarbonyl)-2-(((4-isopropylcyclohexyl)oxy)methyl)pyrrolidin-3-yl)methanesulfonamide] | 
39.4 | 98.8 |  | COC(=O)N1CC[C@@H](NS(=O)(=O)N(C)C)[C@H]1CO[C@H]1CC[C@@H](c2ccccc2)CC1 (relative stereo) [Example 19, methyl (CIS)-3-((N,N-dimethylsulfamoyl)amino)-2-((((CIS)-4-phenylcyclohexyl)oxy)methyl) pyrrolidine-1-carboxylate] | 
3700 | 82.3 |  | COC(=O)N1CC[C@H](NS(=O)(=O)c2ccccc2)[C@@H]1CO[C@H]1CC[C@@H](c2ccccc2)CC1 (relative stereo) [Example 17, methyl (CIS)-2-((((CIS)-4-phenylcyclohexyl)oxy)methyl)-3-(phenylsulfonamido)pyrrolidine-1-carboxylate] | 
372 | 101.3 |  | COC(=O)N1CC[C@@H](NS(=O)(=O)C(C)C)[C@H]1CO[C@H]1CC[C@@H](c2ccccc2)CC1 (relative stereo) [Example 14, methyl (CIS)-3-((1-methylethyl)sulfonamido)-2-((((CIS)-4-phenylcyclohexyl)oxy)methyl) pyrrolidine-1-carboxylate] | 
66.5 | 98.5 |  | CNS(=O)(=O)N[C@@H]1CCN(C(=O)OC)[C@@H]1CO[C@H]1CC[C@@H](c2ccccc2)CC1 (relative stereo) [Example 18, methyl (CIS)-3-((N-methylsulfamoyl)amino)-2-((((CIS)-4-phenylcyclohexyl)oxy)methyl) pyrrolidine-1-carboxylate] | 
 | 17.1 | INACTIVE | CS(=O)(=O)N[C@H]1CCN(C(=O)C2CC2)C1COC1CCC(c2ccccc2)CC1 (single isomer, unassigned) [Example 26] | 
493 | 100.2 |  | CS(=O)(=O)N[C@H]1CCN(C(=O)OCC(F)(F)F)[C@H]1CO[C@H]1CC[C@@H](c2ccccc2)CC1 (relative stereo) [Example 24, 2,2,2-trifluoroethyl (CIS)-3-(methylsulfonamido)-2-((((CIS)-4-phenylcyclohexyl)oxy)methyl)pyrrolidine-1-carboxylate] | 
177 | 100.7 |  | COC(=O)N1CC[C@@H](NS(=O)(=O)CF)[C@H]1CO[C@H]1CC[C@@H](c2ccccc2)CC1 (relative stereo) [Example 16, methyl (CIS)-3-((fluoromethyl)sulfonamido)-2-((((CIS)-4-phenylcyclohexyl)oxy)methyl) pyrrolidine-1-carboxylate] | 
